The source of these data is patent EP4653437A2 (Innovo Therapeutics Inc., priority 2023, dated 2024).

The target of assay [1] is T1, human 15-PGDH (Homo sapiens, UniProt P15428).
T1 construct: purchased R&D System 5660-DH
T1 sequence (P15428 1-266): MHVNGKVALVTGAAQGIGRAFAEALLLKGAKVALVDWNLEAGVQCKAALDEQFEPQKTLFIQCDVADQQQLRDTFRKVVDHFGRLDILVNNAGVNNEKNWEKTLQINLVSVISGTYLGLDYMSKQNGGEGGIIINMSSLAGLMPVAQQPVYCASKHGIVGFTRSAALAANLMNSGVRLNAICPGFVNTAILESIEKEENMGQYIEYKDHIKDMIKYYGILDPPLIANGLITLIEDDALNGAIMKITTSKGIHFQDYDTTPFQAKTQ
In words: Evaluation of 15-PGDH inhibitory activity (fluorescence enzyme assay, NAD+/PGE2). The class given is biochemical. Conditions: human 15-PGDH enzyme, fluorescence Vmax. On the procedure: 15-PGDH inhibition activity of Example compounds was measured as follows. 6.7 ng of human 15-PGDH (R&D System# 5660-DH) enzyme (10 µL) was added to a black 96 well plate, 60 µL of buffer (50 mM Tris-HCl, pH 7.5, 0.01% Tween 20) was added, and 10 µL of 200 µM β-Nicotinamide adenine dinucleotide sodium salt (Sigma, Cat# N0632-5G) was added. 10 µL of (10x) compound solution in DMSO was added and reacted for 10 minutes at room temperature.

The subject of assay [2] is A549 cells. The experiment in a line: Measurement of PGE2-increasing activity in A549 cells (IL-1β stimulated, PGE2 quantified in supernatant). Conditions: Homo sapiens, 24 h; concentration of 1 µM of each compound; IL-1β treated A549 cells; read-out: Increased PGE2 production in A549 cells. The class given is cell-based. As for the experimental part: A549 cells were prepared at a cell number of 1 x 10^5/mL in F12K medium containing 10% FBS (Fetal Bovine Serum), and 2 x 10^4/200 µL was added to each well of a 96-well cell culture plate, and then cultured in an incubator with 5% CO2 at 37 °C for 24 hours. After the culture was complete and all F12K medium was removed, all wells were washed once with 100 µL of PBS, and treated with 160 µL of serum-free F12K medium. Then, 20 µL of IL-1β diluted 10-fold to a concentration of 1 ng/mL in serum-free F12K medium was treated to wells to be treated with IL-1β, and 20 µL of serum-free F12K medium was treated to wells not treated with IL-1β. For the wells to be treated with the compound, 20 µL of the compound dissolved in 100% DMSO was diluted to a concentration 10 times of the desired compound concentration in serum-free F12K medium so that the final DMSO concentration treated to the cells was 0.1%, and for the wells not to be treated with the compound, 20 µL of DMSO diluted in serum-free F12K medium so that the final DMSO concentration treated to the cells was 0.1% was treated. In order to confirm the increase or decrease in the secretion amount of PGE2 in the supernatant collected after culturing for 24 hours in an incubator with 5% CO2 at 37 °C, PGE2 was quantified using the Prostaglandin E2 Parameter (SKGE004B).

Usually IC50 stands for the concentration that inhibits the measured activity by half. The low end stands for inhibition by little substance, the high end for a need for much substance.

Turning to `CC1CCCN(C(=O)c2cnn3c(-c4ccc5c(c4)C(=O)NC5)cccc23)C1` (stereo not drawn) [Example 387, 6-(3-(3-methylpiperidine-1-carbonyl)pyrazolo[1,5-a]pyridin-7-yl)isoindolin-1-one], in assay [1], the 50% inhibitory concentration (IC50) is no more than 100 nM. Further, in assay [2], the fold induction at 1 µM is greater than 1.5.
The matching figures for `O=C1NCc2ccc(-c3cccc4c(C(=O)N5CC6(CC(F)C6)C5)cnn34)cc21` [Example 411, 6-(3-(6-fluoro-2-azaspiro[3.3]heptane-2-carbonyl)pyrazolo[1,5-a]pyridin-7-yl)isoindolin-1-one]: no more than 100 nM and greater than 1.5.
Consider `CC(C)NC(=O)c1cccc(-c2cccc3c(C(=O)N4CCCCC4)cnn23)c1` [Example 28, N-isopropyl-3-(3-(piperidine-1-carbonyl)pyrazolo[1,5-a]pyridin-7-yl)benzamide], for which, in assay [1], the IC50 was no more than 100 nM. In addition, in assay [2], the fold induction at 1 µM is greater than 1.5.
The matching figures for `CS(=O)(=O)NC(=O)c1cncc(-c2cccc3c(C(=O)N4CCCCC4)cnn23)c1` [Example 201, N-methylsulfonyl-5-[3-(piperidine-1-carbonyl)pyrazolo[1,5-a]pyridin-7-yl]pyridine-3-carboxamide]: no more than 100 nM and greater than 1.5.
The matching figures for `CC1CCCN(C(=O)c2cnn3c(-c4ccc(N5CCOC5=O)nc4)cccc23)C1` (stereo not drawn) [Example 353, 3-(5-(3-(3-methylpiperidine-1-carbonyl)pyrazolo[1,5-a]pyridin-7-yl)pyridin-2-yl)oxazolidin-2-one]: no more than 100 nM and greater than 1.5.
For the compound `O=C(c1cnn2c(-c3cc(Br)cnc3N3CC(CO)C3)cccc12)N1CCCCC1` [Example 363, (7-(5-bromo-2-(3-(hydroxymethyl)azetidin-1-yl)pyridin-3-yl)pyrazolo[1,5-a]pyridin-3-yl)(piperidin-1-yl)methanone], the IC50 in assay [1] is no more than 100 nM. In addition, the fold induction at 1 µM in assay [2] was less than 1.5.
The matching figures for `O=C(c1cnn2c(-c3cc(F)ncc3Cl)cccc12)N1CCCCC1` [Example 298, (7-(5-chloro-2-fluoropyridin-4-yl)pyrazolo[1,5-a]pyridin-3-yl)(piperidin-1-yl)methanone]: no more than 100 nM and greater than 1.5.
The matching figures for `CC(C)N1Cc2ccc(-c3cccc4c(C(=O)N5CCCCC5)cnn34)cc2C1=O` [Example 142, 2-isopropyl-6-(3-(piperidine-1-carbonyl)pyrazolo[1,5-a]pyridin-7-yl)isoindolin-1-one]: no more than 100 nM and greater than 1.5.
The compound `Cc1noc(C)c1-c1cc(-c2cccc3c(C(=O)N4CCCCC4)cnn23)cc(N2CCOCC2)n1` [Example 371, (7-(2-(3,5-dimethylisoxazol-4-yl)-6-morpholinopyridin-4-yl)pyrazolo[1,5-a]pyridin-3-yl)(piperidin-1-yl)methanone] yielded an IC50 in assay [1] of no more than 100 nM. The fold induction at 1 µM in assay [2] was greater than 1.5.
With `O=C1CN(C(=O)c2cncc(-c3cccc4c(C(=O)N5CCCCC5)cnn34)c2)CCN1` [Example 203, 4-[5-[3-(piperidine-1-carbonyl)pyrazolo[1,5-a]pyridin-7-yl]pyridine-3-carbonyl]piperazin-2-one], in assay [1], the IC50 was no more than 100 nM. Further, the fold induction at 1 µM in assay [2] was greater than 1.5.
The matching figures for `O=C(c1cnn2c(-c3ccc(NCCc4cccnc4)nc3)cccc12)N1CCCCC1` [Example 332, piperidin-1-yl(7-(6-((2-(pyridin-3-yl)ethyl)amino)pyridin-3-yl)pyrazolo[1,5-a]pyridin-3-yl)methanone]: no more than 100 nM and greater than 1.5.
With `O=C(c1ccc(-c2cccc3c(C(=O)N4CCCCC4)cnn23)cn1)N1CCC1` [Example 77, azetidin-1-yl(5-(3-(piperidine-1-carbonyl)pyrazolo[1,5-a]pyridin-7-yl)pyridin-2-yl)methanone], the IC50 in assay [1] is no more than 100 nM. The fold induction at 1 µM in assay [2] is greater than 1.5.
